IC50, MIC90 and MIC data for 2 molecules are collected here from ChEMBL document CHEMBL4411263, “Isolation of Tryptanthrin and Reassessment of Evidence for Its Isobaric Isostere Wrightiadione in Plants of the Wrightia Genus” (J Nat Prod, 2019).

SMILES strings stand for the structures. In brackets after ≈: the same amount, converted by molar mass.

Experiment [1] concerns Vero. The experiment is described as follows: Cytotoxicity against African green monkey Vero cells by CellTiter 96 aqueous nonradioactive cell proliferation assay. Type of experiment: cell-based. The note with it: Chlorocebus sabaeus.
The subject of experiment [2] is Mycobacterium tuberculosis. Put plainly: Antitubercular activity against Mycobacterium tuberculosis H37Rv ATCC 27294 incubated for 1 week by MABA. Type of experiment: functional. The settings on record: H37Rv ATCC 27294, 168 h.
Experiment [3] concerns Mycobacterium tuberculosis. The experiment is described as follows: Antitubercular activity against Mycobacterium tuberculosis H37Rv. Type of experiment: functional.

What is called IC50 is the concentration at which inhibition is half-maximal. One may read the MIC90 as the lowest concentration that inhibits either 90% of growth or 90% of the strains tested, depending on the study. `CO[C@H]1/C=C/O[C@@]2(C)Oc3c(C)c(O)c4c(O)c(c(/C=N/N5CCN(C)CC5)c(O)c4c3C2=O)NC(=O)/C(C)=C\C=C\[C@H](C)[C@H](O)[C@@H](C)[C@@H](O)[C@@H](C)[C@H](OC(C)=O)[C@@H]1C` [RIFAMPIN]: the IC50 in experiment [1] was 97.4 µg/mL (≈ 118 µM). This molecule displayed an MIC90 in experiment [2] of 0.05 µg/mL (≈ 0.0608 µM).

Broadly, the MIC is the lowest concentration found to suppress growth. `O=C1c2ccccc2-n2c1nc1ccccc1c2=O` [TRYPTANTHRIN] yielded an MIC in experiment [3] of 1 µg/mL (≈ 4.03 µM). In addition, the IC50 in experiment [1] was over 100 µg/mL. Moreover, the MIC90 in experiment [2] amounted to 7.59 µg/mL (≈ 30.6 µM).
